Among the data in patent US20230219978A1, “COMPOUND HAVING MACROCYCLIC STRUCTURE AND USE THEREOF” (SCINNOHUB PHARMACEUTICAL CO., LTD, priority 2020, published 2023) are IC50 values, retold here.

Holding throughout (assay type): biochemical
The target of one assay is T1, TRKa (Homo sapiens, UniProt P04629).
T1 construct: purchased Carna 08-186
The assay is described as follows: In vitro kinase activity assay (mobility shift assay), TRKa. Conditions: ATP 47.8 μM, reaction time 30 min. The procedure:
(§1) The IC50 (half inhibitory concentration) values of the compounds were used as an indicator to evaluate the inhibitory effect of the compound on RET wild-type, RET mutant, TRKa, SRC, BTK and/or mutated BTK kinase.
(§2) Using the method of Mobility shift assay, the compounds were tested for inhibitory activity against the following kinases: RET wild type, RET mutant, TRKa, SRC, BTK and/or mutated BTK. The initial concentration of the test compound was 1000 nM, 3-fold dilution, 10 concentrations, detected in a well for each concentration.
(§3) 20 mM hydroxyethylpiperazineethanesulfonic acid (Hepes) (pH 7.5) buffer, 10 mM MgCl2, 1 mM ethylene glycol bis(aminoethyl ether)tetraacetic acid (EGTA), 0.02% polyoxyethylene lauryl ether (Brij35), 0.02 mg/ml […] (BSA), 0.1 mM Na3VO4, 2 mM dithiothreitol (DTT), 1% DMSO.
(§4) The test compounds were dissolved in 100% dimethyl sulfoxide (DMSO) system, and prepared as 10 mM for use, and stored in a nitrogen cabinet away from light.
(§5) • (1) Preparing 1× kinase reaction buffer. • (2) Preparation of compound concentration gradient: the initial concentration of the compounds was 1000 nM, which was diluted as 100-fold final concentration of solution in 100% dimethyl sulfoxide (DMSO) in a 384-well plate. The compound was accurately 3-fold diluted with the kinase buffer solution, 10 concentrations in total, and the final concentration was 0.0508 nM. The 100-fold final concentration of solution in 100% dimethyl sulfoxide (DMSO) was obtained by dilution in 384 source plate. The liquid separator Echo 550 was used to transfer 250 nl of 100-fold final concentration of compound to the target 384 well plate. 250 nl of DMSO was added to the positive and negative control wells. • (3) 2.5-fold final concentration of kinase solution was prepared by the 1× kinase buffer. • (4) 10 4, of 2.5-fold final concentration of kinase solution was added to the compound well and the positive control well, respectively; 10 4, of 1× kinase buffer was added to the negative control well. • (5) After centrifuging at 1000 rpm for 30 second, the reaction plate was shaken and mixed, followed by incubation at room temperature for 10 min. • (6) a mixed solution of 25/15-fold final concentration of adenosine triphosphate (ATP) and kinase substrate was prepared by 1× kinase buffer. • (7) The mixed solution (15 μL) of 25/15-fold final concentration of adenosine triphosphate (ATP) and substrate was added to initiate the reaction. • (8) 384-well plate was centrifuged at 1000 rpm for 30 second, shaken and mixed well, and then incubated at room temperature for 30-240 min. • (9) After stopping the kinase reaction, the plate was centrifugated at 1000 rpm for 30 second, shaken and mixed well. • (10)The conversion rate was read with Caliper EZ Reader.
(§6) wherein Conversion%_sample is the conversion rate reading of the sample; Conversion%_min: the mean value of negative control wells, representing the conversion rate reading of wells without enzymes; Conversion%_max: the mean value of positive control wells, representing the conversion rate reading of wells without compound inhibition.
(§7) The log value of concentration was taken as the X axis, and the percentage inhibition rate was taken as the Y axis. Graphpad 6.0 analysis software was used to fit the dose-response curve, so as to obtain the IC50 value of each compound on the enzyme activity

Another assay has as its target T2, RET wt (Homo sapiens, UniProt P07949).
T2 construct: purchased Carna 08-159
The assay is described as follows: In vitro kinase activity assay (mobility shift assay), RET wild type. As to conditions: ATP 16 μM, reaction time 60 min. The protocol: as §1, §2, §3, §4, §5, §6, §7

Another assay addresses T3, RET G810R (Homo sapiens, UniProt P07949, G810R).
T3 construct: purchased Proqinase 1724-0000-1
Kind of assay: In vitro kinase activity assay (mobility shift assay), RET G810R. As to conditions: ATP 201 μM, reaction time 4 h. The protocol:
as §1, §2, §3, §4, §5, §6, §7

The next assay concerns the target T4, RET V804M (Homo sapiens, UniProt P07949, V804M).
T4 construct: purchased signalchem R02-12GG
Kind of assay: In vitro kinase activity assay (mobility shift assay), RET V804M. As to conditions: ATP 5.4 μM, reaction time 60 min. The protocol:
as §1, §2, §3, §4, §5, §6, §7

For a further assay, the target named is T5, BTK (Homo sapiens, UniProt Q06187).
T5 construct: purchased Carna 08-180
T5 sequence (Q06187 whole entry): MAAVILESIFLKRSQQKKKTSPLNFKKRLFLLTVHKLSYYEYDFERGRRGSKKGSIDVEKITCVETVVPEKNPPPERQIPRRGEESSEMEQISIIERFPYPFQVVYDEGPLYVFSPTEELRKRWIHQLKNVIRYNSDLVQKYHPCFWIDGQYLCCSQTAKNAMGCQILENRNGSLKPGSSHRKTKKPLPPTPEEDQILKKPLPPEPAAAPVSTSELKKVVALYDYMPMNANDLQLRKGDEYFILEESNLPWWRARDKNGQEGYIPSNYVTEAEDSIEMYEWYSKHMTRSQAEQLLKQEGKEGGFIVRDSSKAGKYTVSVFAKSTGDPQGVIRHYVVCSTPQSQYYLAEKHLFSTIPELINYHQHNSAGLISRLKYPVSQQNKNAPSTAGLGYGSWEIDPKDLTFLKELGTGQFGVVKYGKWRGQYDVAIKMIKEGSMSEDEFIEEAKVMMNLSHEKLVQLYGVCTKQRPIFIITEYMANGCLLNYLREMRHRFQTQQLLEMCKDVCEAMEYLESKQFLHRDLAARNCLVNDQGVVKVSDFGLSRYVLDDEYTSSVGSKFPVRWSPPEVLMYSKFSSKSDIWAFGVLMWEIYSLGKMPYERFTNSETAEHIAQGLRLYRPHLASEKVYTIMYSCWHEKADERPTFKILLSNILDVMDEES
Kind of assay: In vitro kinase activity assay (mobility shift assay), BTK. Conditions: ATP 71 μM, reaction time 30 min. The protocol:
as §1, §2, §3, §4, §5, §6, §7

T1 sequence (P04629 33-796): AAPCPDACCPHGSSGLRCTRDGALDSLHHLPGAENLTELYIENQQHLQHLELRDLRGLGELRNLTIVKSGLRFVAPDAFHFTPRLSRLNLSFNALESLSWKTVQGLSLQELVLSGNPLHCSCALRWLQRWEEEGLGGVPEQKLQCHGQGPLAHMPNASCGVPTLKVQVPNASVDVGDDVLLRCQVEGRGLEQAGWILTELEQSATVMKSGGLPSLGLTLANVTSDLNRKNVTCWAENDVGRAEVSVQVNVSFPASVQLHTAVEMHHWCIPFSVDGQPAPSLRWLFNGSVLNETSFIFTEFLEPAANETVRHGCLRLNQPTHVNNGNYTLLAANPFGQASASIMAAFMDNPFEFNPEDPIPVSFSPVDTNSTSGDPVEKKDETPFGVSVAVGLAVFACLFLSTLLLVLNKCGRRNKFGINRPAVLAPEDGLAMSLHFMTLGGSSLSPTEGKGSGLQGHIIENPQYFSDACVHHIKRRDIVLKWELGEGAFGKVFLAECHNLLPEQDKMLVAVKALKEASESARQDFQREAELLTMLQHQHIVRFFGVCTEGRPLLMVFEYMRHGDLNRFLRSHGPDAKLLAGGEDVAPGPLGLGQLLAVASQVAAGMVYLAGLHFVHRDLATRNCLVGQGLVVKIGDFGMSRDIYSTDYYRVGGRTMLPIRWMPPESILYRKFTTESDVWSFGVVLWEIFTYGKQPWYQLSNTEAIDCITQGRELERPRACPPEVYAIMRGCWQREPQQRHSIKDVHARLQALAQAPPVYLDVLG
T2 sequence (P07949 29-1114): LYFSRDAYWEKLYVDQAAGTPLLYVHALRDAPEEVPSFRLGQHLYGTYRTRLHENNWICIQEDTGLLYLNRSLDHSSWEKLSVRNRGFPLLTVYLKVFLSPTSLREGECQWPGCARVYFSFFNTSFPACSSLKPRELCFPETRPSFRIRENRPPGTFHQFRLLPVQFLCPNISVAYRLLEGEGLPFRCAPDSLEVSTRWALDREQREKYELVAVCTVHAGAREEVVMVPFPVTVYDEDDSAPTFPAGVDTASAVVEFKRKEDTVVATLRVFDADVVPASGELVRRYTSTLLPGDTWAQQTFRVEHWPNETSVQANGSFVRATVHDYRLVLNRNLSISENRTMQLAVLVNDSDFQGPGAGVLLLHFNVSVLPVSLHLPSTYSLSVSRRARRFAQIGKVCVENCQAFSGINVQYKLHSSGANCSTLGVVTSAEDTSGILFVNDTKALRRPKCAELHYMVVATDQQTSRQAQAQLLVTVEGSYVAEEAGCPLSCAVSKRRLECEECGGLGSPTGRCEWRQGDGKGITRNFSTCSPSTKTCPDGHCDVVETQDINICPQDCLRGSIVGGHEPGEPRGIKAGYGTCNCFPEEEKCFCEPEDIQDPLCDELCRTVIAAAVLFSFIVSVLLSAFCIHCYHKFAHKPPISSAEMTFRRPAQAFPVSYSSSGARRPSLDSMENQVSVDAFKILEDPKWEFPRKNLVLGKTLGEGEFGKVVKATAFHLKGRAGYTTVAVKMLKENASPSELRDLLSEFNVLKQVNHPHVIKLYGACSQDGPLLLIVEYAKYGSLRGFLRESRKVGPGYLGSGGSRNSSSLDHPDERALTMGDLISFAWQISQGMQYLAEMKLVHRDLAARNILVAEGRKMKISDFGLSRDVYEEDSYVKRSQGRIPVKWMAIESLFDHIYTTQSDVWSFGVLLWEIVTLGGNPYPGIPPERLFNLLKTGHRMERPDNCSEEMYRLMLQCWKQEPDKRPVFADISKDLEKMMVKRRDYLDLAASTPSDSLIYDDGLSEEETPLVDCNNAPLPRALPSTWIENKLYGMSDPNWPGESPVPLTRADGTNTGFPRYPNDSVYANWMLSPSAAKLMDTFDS
T4 sequence (P07949 29-1114 V804M): as the sequence (P07949 29-1114) above, with V776M counted along it
T3 sequence (P07949 29-1114 G810R): as the sequence (P07949 29-1114) above, with G782R counted along it

One may read the IC50 as the midpoint of a concentration-inhibition curve. As to `C[C@H]1CNC(=O)c2cnn3cc(O)c(nc23)NCc2cc(F)cnc2O1` [Compound 2, (S, 1^3E, 1^4E)-4^5-fluoro-6-methyl-1^6-hydroxy-5-oxa-2,8-diaza-1(5,3)-pyrazolo[1,5-a]pyrimidina-4(3,2)-pyridinacyclononaphan-9-one], the figures for the IC50 on TRKa and on RET wt were 46 nM and 5280 nM, respectively.

`COc1cc(-c2cn3ncc4c3nc2NCc2cc(F)cnc2O[C@@H](C)CNC4=O)ccn1` [Compound 5, (S, 1^3E, 1^4E)-4^5-fluoro-1^6-(2-methoxypyridin-4-yl)-6-methyl-5-oxa-2,8-diaza-1(5,3)-pyrazolo[1,5-a]pyrimidin-4(3, 2)-pyridinacyclononaphan-9-one]: the IC50 is over 10000 nM at TRKa and 237 nM at RET wt.

Turning to `C[C@H]1CNC(=O)c2cnn3cc(-c4ccccc4F)c(nc23)NCc2cc(F)cnc2O1` [Compound 6, (S, 1^3E, 1^4E)-1^6-(2-fluorophenyl)-4^5-fluoro-6-methyl-5-oxa-2,8-diaza-1(5,3)-pyrazolo[1,5-a]pyrimidina-4(3,2)-pyridinacyclononaphan-9-one], the results for the half-maximal inhibitory concentration (IC50) at TRKa and on RET wt were 1340 nM and 5.1 nM, respectively.

Take `C[C@H]1CNC(=O)c2cnn3cc(-c4cccc(F)c4)c(nc23)NCc2cc(F)cnc2O1` [Compound 7, (S, 1^3E, 1^4E)-1^6-(3-fluorophenyl)-4^5-fluoro-6-methyl-5-oxa-2,8-diaza-1(5,3)-pyrazolo[1,5-a]pyrimidina-4(3,2)-pyridinacyclononaphan-9-one]: the IC50 at TRKa was 1850 nM; on RET wt it was 10 nM.

Take `C[C@H]1CNC(=O)c2cnn3cc(-c4ccc(F)cc4)c(nc23)NCc2cc(F)cnc2O1` [Compound 8, (S, 1^3E, 1^4E)-1^6-(4-fluorophenyl)-4^5-fluoro-6-methyl-5-oxa-2,8-diaza-1(5,3)-pyrazolo[1,5-a]pyrimidina-4(3,2)-pyridinacyclononaphan-9-one]: the values for the half-maximal inhibitory concentration (IC50) at TRKa and on RET wt were 1240 nM and 13 nM, respectively.

With `Cc1ccc(-c2cn3ncc4c3nc2NCc2cc(F)cnc2O[C@@H](C)CNC4=O)cc1` [Compound 11, (S, 1^3E, 1^4E)-1^6-(4-methylphenyl)-4^5-fluoro-6-methyl-5-oxa-2,8-diaza-1(5,3)-pyrazolo[1,5-a]pyrimidina-4(3,2)-pyridinacyclononaphan-9-one], the half-inhibitory concentration (IC50) stood at 925 nM at TRKa and 15 nM on RET wt.

On to `Cc1cccc(-c2cn3ncc4c3nc2NCc2cc(F)cnc2O[C@@H](C)CNC4=O)c1` [Compound 12, (S, 1^3E, 1^4E)-1^6-(3-methylphenyl)-4^5-fluoro-6-methyl-5-oxa-2,8-diaza-1(5,3)-pyrazolo[1,5-a]pyrimidina-4(3,2)-pyridinacyclononaphan-9-one], for which the values for the half-maximal inhibitory concentration (IC50) at TRKa and on RET wt were over 10000 nM and 36 nM, respectively.

As to `Cc1ccccc1-c1cn2ncc3c2nc1NCc1cc(F)cnc1O[C@@H](C)CNC3=O` [Compound 13, (S, 1^3E, 1^4E)-1^6-(2-methylphenyl)-4^5-fluoro-6-methyl-5-oxa-2,8-diaza-1(5,3)-pyrazolo[1,5-a]pyrimidina-4(3,2)-pyridinacyclononaphan-9-one], the IC50 was over 10000 nM on TRKa and 5.3 nM at RET wt.

In the case of `C[C@H]1CNC(=O)c2cnn3cc(-c4ccc(C(F)(F)F)cc4)c(nc23)NCc2cc(F)cnc2O1` [Compound 14, (S, 1^3E, 1^4E)-1^6-(4-trifluoromethylphenyl)-4^5-fluoro-6-methyl-5-oxa-2,8-diaza-1(5,3)-pyrazolo[1,5-a]pyrimidina-4(3,2)-pyridinacyclononaphan-9-one], the IC50 on TRKa is over 10000 nM; on RET wt, 127 nM.

For `C[C@H]1CNC(=O)c2cnn3cc(-c4ccccc4C(F)(F)F)c(nc23)NCc2cc(F)cnc2O1` [Compound 16, (S, 1^3E, 1^4E)-1^6-(2-trifluoromethylphenyl)-4^5-fluoro-6-methyl-5-oxa-2,8-diaza-1(5,3)-pyrazolo[1,5-a]pyrimidina-4(3,2)-pyridinacyclononaphan-9-one], the results for the half-maximal inhibitory concentration (IC50) on TRKa and at RET wt were 1370 nM and 543 nM, respectively.

Turning to `C[C@H]1CNC(=O)c2cnn3cc(-c4ccc(=O)n(C)c4)c(nc23)NCc2cc(F)cnc2O1` [Compound 20, (S, 1^3E, 1^4E)-4^5-fluoro-6-methyl-1^6-(1-methyl-6-oxo-1,6-dihydropyridin-3-yl)-5-oxa-2,8-diaza-1(5,3)-pyrazolo[1,5-a]pyrimidin-4(3,2)-pyridinacyclononaphan-9-one], the 50% inhibitory concentration (IC50) at TRKa and at RET wt was over 10000 nM in each case.

Turning to `C[C@H]1CNC(=O)c2cnn3cc(-c4ccc(Cl)cc4Cl)c(nc23)NCc2cc(F)cnc2O1` [Compound 21, (S, 1^3E, 1^4E)-1^6-(2,4-dichlorophenyl)-4^5-fluoro-6-methyl-5-oxa-2,8-diaza-1(5,3)-pyrazolo[1,5-a]pyrimidin-4(3,2)-pyridinacyclononaphan-9-one], the IC50 at TRKa was over 10000 nM; at RET wt it was 5.9 nM.

Regarding `C[C@H]1CNC(=O)c2cnn3cc(-c4c(F)cccc4F)c(nc23)NCc2cc(F)cnc2O1` [Compound 22, (S, 1^3E, 1^4E)-1^6-(2,6-difluorophenyl)-4^5-fluoro-6-methyl-5-oxa-2,8-diaza-1(5,3)-pyrazolo[1,5-a]pyrimidin-4(3,2)-pyridinacyclononaphan-9-one], the IC50 was 304 nM at TRKa and 21 nM on RET wt.

For `C[C@H]1CNC(=O)c2cnn3cc(C4CC4)c(nc23)NCc2cc(F)cnc2O1` [Compound 23, (S, 1^3E, 1^4E)-1^6-cyclopropyl-4^5-fluoro-6-methyl-5-oxa-2,8-diaza-1(5,3)-pyrazolo[1,5-a]pyrimidin-4(3,2)-pyridinacyclononaphan-9-one], the 50% inhibitory concentration (IC50) at TRKa is over 10000 nM; at RET wt, 448 nM.

Regarding `C[C@H]1CNC(=O)c2cnn3cc(Nc4ccccc4)c(nc23)NCc2cc(F)cnc2O1` [Compound 25, (S, 1^3E, 1^4E)-4^5-fluoro-6-methyl-1^6-phenylamino-5-oxa-2,8-diaza-1(5,3)-pyrazolo[1,5-a]pyrimidina-4(3,2)-pyridinacyclononaphan-9-one], the concentration for half-maximal inhibition (IC50) on TRKa was over 10000 nM; on RET wt, 366 nM.

Regarding `C[C@H]1CNC(=O)c2cnn3cc(-c4ccccc4)c(nc23)N[C@H](C)c2cc(F)cnc2O1` [Compound 26, (1^3E, 1^4E, 3R, 6S)-4^5-fluoro-3,6-dimethyl-1^6-phenyl-5-oxa-2,8-diaza-1(5,3)-pyrazolo[1,5-a]pyrimidin-4(3,2)-pyridinacyclononaphan-9-one], the values for the IC50 at TRKa and on RET wt were over 10000 nM and 9 nM, respectively.

Regarding `O=C1N[C@H]2C[C@H](C2)Oc2ncc(F)cc2CNc2nc3c1cnn3cc2-c1ccccc1` [Compound 29], the IC50 at TRKa is over 10000 nM; at RET wt, 20 nM.

`COC(=O)NC1CC=C(c2cn3ncc4c3nc2NCc2cc(F)cnc2O[C@@H](C)CNC4=O)CC1` (stereo partly drawn) [Compound 43, methyl (4((S, 1^3E, 1^4E)-4^5-fluoro-6-methyl-9-oxo-5-oxa-2,8-diaza-1(5,3)-pyrazolo[1,5-a]pyrimidin-4(3,2)-pyridinacyclononaphan-1^6-yl)cyclohex-3-en-1-yl)carbamate]: the half-inhibitory concentration (IC50) on RET G810R is over 10000 nM; on RET V804M it was over 10000 nM; at RET wt it was 68 nM; at BTK it was over 10000 nM.
